14 compounds from patent publication US20220177508A1, “C10-Cyclic Substituted 13-Membered Macrolides and Uses Thereof” (Zikani Therapeutics, Inc., priority 2018, published 2022) can be followed below.

Common to all, as to format: cell-based
In one experiment the test system is S. aureus MP-12. Nature of the experiment: Broth dilution MIC determination (CLSI), S. aureus MP-12. Particulars: Staphylococcus aureus, MP12; strain MP-12, broth dilution.
A further experiment deals with A. baumannii MP-15. Briefly: Broth dilution MIC determination (CLSI), A. baumannii MP-15. Particulars: Acinetobacter baumannii, MP15; strain MP-15, broth dilution; read-out: MIC A. baumanii MP-15.
The next experiment concerns P. aeruginosa MP-3. Briefly: Broth dilution MIC determination (CLSI), P. aeruginosa MP-3. The settings on record: Pseudomonas aeruginosa, MP3; strain MP-3, broth dilution.
In the next experiment the test system is K. pneumoniae MP-546. Nature of the experiment: Broth dilution MIC determination (CLSI), K. pneumoniae MP-546. Particulars: Klebsiella pneumoniae, MP546; strain MP-546, broth dilution.
A further experiment relates to E. coli MP-4. Nature of the experiment: Broth dilution MIC determination (CLSI), E. coli MP-4. Particulars: Escherichia coli, MP4; strain MP-4, broth dilution; read-out: MIC E. coli MP-4.

In brackets after ≈: the same amount, converted by molar mass.

For the compound `CO[C@]1(C)C[C@@H](C)CN(C)[C@@H]([C@H]2CCNC2)COC(=O)C(C)(C)C(=O)[C@H](C)[C@H]1O[C@@H]1O[C@H](C)C[C@H](N(C)C)[C@H]1O` [Compound 40, (3S,6R,8R,9R,10R)-9-(((2S,3R,4S,6R)-4-(Dimethylamino)-3-hydroxy-6-methyltetrahydro-2H-pyran-2-yl)oxy)-8-methoxy-4,6,8,10,12,12-hexamethyl-3-((S)-pyrrolidin-3-yl)-1-oxa-4-azacyclotridecane-11,13-dione], the MIC is 4 to 32 µg/mL (≈ 7.02 to 56.2 µM) against S. aureus MP-12; > 32 µg/mL in the experiment with A. baumannii MP-15; > 32 µg/mL with P. aeruginosa MP-3; < 4 µg/mL in the experiment on K. pneumoniae MP-546; < 4 µg/mL in the experiment on E. coli MP-4.

With `CO[C@]1(C)C[C@@H](C)CN(C)[C@H](c2ccccc2)COC(=O)C(C)(C)C(=O)[C@H](C)[C@H]1O[C@@H]1O[C@H](C)C[C@H](N(C)C)[C@H]1O` [Compound 42, (3R,6R,8R,9R,10R)-9-(((2S,3R,4S,6R)-4-(Dimethylamino)-3-hydroxy-6-methyltetrahydro-2H-pyran-2-yl)oxy)-8-methoxy-4,6,8,10,12,12-hexamethyl-3-phenyl-1-oxa-4-azacyclotridecane-11,13-dione], the MIC was > 32 µg/mL against S. aureus MP-12; > 32 µg/mL in the experiment on A. baumannii MP-15; > 32 µg/mL with P. aeruginosa MP-3; > 32 µg/mL in the experiment on K. pneumoniae MP-546; 4 to 32 µg/mL (≈ 6.94 to 55.5 µM) in the experiment on E. coli MP-4.

As for `CO[C@]1(C)C[C@@H](C)CN(C)[C@H](C2CCN(C)CC2)COC(=O)C(C)(C)C(=O)[C@H](C)[C@H]1O[C@@H]1O[C@H](C)C[C@H](N(C)C)[C@H]1O` [Compound 43, (3R,6R,8R,9R,10R)-9-(((2S,3R,4S,6R)-4-(dimethylamino)-3-hydroxy-6-methyltetrahydro-2H-pyran-2-yl)oxy)-8-methoxy-4,6,8,10,12,12-hexamethyl-3-(1-methylpiperidin-4-yl)-1-oxa-4-azacyclotridecane-11,13-dione], the MIC with S. aureus MP-12 is 4 to 32 µg/mL (≈ 6.69 to 53.5 µM); in the experiment on A. baumannii MP-15 it was > 32 µg/mL; in the experiment on P. aeruginosa MP-3, > 32 µg/mL; against K. pneumoniae MP-546, < 4 µg/mL; in the experiment with E. coli MP-4 it was < 4 µg/mL.

As to `CNCC(=O)N1C2CCC1CC([C@@H]1COC(=O)C(C)(C)C(=O)[C@H](C)[C@@H](O[C@@H]3O[C@H](C)C[C@H](N(C)C)[C@H]3O)[C@](C)(OC)C[C@@H](C)CN1C)C2` (stereo partly drawn) [Compound 44, (3R,6R,8R,9R,10R)-9-(((2S,3R,4S,6R)-4-(dimethylamino)-3-hydroxy-6-methyltetrahydro-2H-pyran-2-yl)oxy)-8-methoxy-4,6,8,10,12,12-hexamethyl-3-(8-(methylglycyl)-8-azabicyclo[3.2.1]octan-3-yl)-1-oxa-4-azacyclotridecane-11,13-dione], the MIC against S. aureus MP-12 is > 32 µg/mL; in the experiment on A. baumannii MP-15, > 32 µg/mL; in the experiment on P. aeruginosa MP-3, > 32 µg/mL; in the experiment with K. pneumoniae MP-546 it was > 32 µg/mL; in the experiment with E. coli MP-4, 4 to 32 µg/mL (≈ 5.87 to 47 µM).

For the compound `CO[C@]1(C)C[C@@H](C)CN(C)[C@H](C2CN(CC(=O)N3CCCC3)C2)COC(=O)C(C)(C)C(=O)[C@H](C)[C@H]1O[C@@H]1O[C@H](C)C[C@H](N(C)C)[C@H]1O` [Compound 45, (3R,6R,8R,9R,10R)-9-(((2S,3R,4S,6R)-4-(dimethylamino)-3-hydroxy-6-methyltetrahydro-2H-pyran-2-yl)oxy)-8-methoxy-4,6,8,10,12,12-hexamethyl-3-(1-(2-oxo-2-(pyrrolidin-1-yl)ethyl)azetidin-3-yl)-1-oxa-4-azacyclotridecane-11,13-dione], the MIC against S. aureus MP-12 was 4 to 32 µg/mL (≈ 6 to 48 µM); in the experiment with A. baumannii MP-15, > 32 µg/mL; against P. aeruginosa MP-3, > 32 µg/mL; in the experiment with K. pneumoniae MP-546, 4 to 32 µg/mL (≈ 6 to 48 µM); in the experiment with E. coli MP-4 it was < 4 µg/mL.

With `CO[C@]1(C)C[C@@H](C)CN(C)[C@H]([C@@H]2CCN(C(C)C)C2)COC(=O)C(C)(C)C(=O)[C@H](C)[C@H]1O[C@@H]1O[C@H](C)C[C@H](N(C)C)[C@H]1O` [Compound 46, (3R,6R,8R,9R,10R)-9-(((2S,3R,4S,6R)-4-(Dimethylamino)-3-hydroxy-6-methyltetrahydro-2H-pyran-2-yl)oxy)-3-((R)-1-isopropylpyrrolidin-3-yl)-8-methoxy-4,6,8,10,12,12-hexamethyl-1-oxa-4-azacyclotridecane-11,13-dione], the MIC against S. aureus MP-12 was > 32 µg/mL; with A. baumannii MP-15 it was > 32 µg/mL; in the experiment on P. aeruginosa MP-3, > 32 µg/mL; in the experiment on K. pneumoniae MP-546 it was 4 to 32 µg/mL (≈ 6.54 to 52.3 µM); in the experiment with E. coli MP-4 it was < 4 µg/mL.

Take `CO[C@]1(C)C[C@@H](C)CN(C)[C@H](C2CCNCC2)[C@H](C)OC(=O)C(C)(C)C(=O)[C@H](C)[C@H]1O[C@@H]1O[C@H](C)C[C@H](N(C)C)[C@H]1O` [Compound 47, (2S,3R,6R,8R,9R,10R)-9-(((2S,3R,4S,6R)-4-(dimethylamino)-3-hydroxy-6-methyltetrahydro-2H-pyran-2-yl)oxy)-8-methoxy-2,4,6,8,10,12,12-heptamethyl-3-(piperidin-4-yl)-1-oxa-4-azacyclotridecane-11,13-dione]: the MIC in the experiment with S. aureus MP-12 was > 32 µg/mL; in the experiment on A. baumannii MP-15 it was > 32 µg/mL; with P. aeruginosa MP-3 it was > 32 µg/mL; against K. pneumoniae MP-546, > 32 µg/mL; in the experiment with E. coli MP-4 it was 4 to 32 µg/mL (≈ 6.69 to 53.5 µM).

Take `CO[C@]1(C)C[C@@H](C)CN(C)[C@@H]([C@H]2CCN(C)C2)COC(=O)C(C)(C)C(=O)[C@H](C)[C@H]1O[C@@H]1O[C@H](C)C[C@H](N(C)C)[C@H]1O` [Compound 48, (3S,6R,8R,9R,10R)-9-(((2S,3R,4S,6R)-4-(Dimethylamino)-3-hydroxy-6-methyltetrahydro-2H-pyran-2-yl)oxy)-8-methoxy-4,6,8,10,12,12-hexamethyl-3-((S)-1-methylpyrrolidin-3-yl)-1-oxa-4-azacyclotridecane-11,13-dione]: the MIC is 4 to 32 µg/mL (≈ 6.85 to 54.8 µM) in the experiment on S. aureus MP-12; > 32 µg/mL with A. baumannii MP-15; > 32 µg/mL with P. aeruginosa MP-3; < 4 µg/mL with K. pneumoniae MP-546; < 4 µg/mL with E. coli MP-4.

For the compound `CO[C@]1(C)C[C@@H](C)CN(C)[C@@H](C2CN(C(=O)[C@@H](C)N(C)C)C2)COC(=O)C(C)(C)C(=O)[C@H](C)[C@H]1O[C@@H]1O[C@H](C)C[C@H](N(C)C)[C@H]1O` [Compound 52, (3S,6R,8R,9R,10R)-3-(1-(dimethyl-D-alanyl)azetidin-3-yl)-9-(((2S,3R,4S,6R)-4-(dimethylamino)-3-hydroxy-6-methyltetrahydro-2H-pyran-2-yl)oxy)-8-methoxy-4,6,8,10,12,12-hexamethyl-1-oxa-4-azacyclotridecane-11,13-dione], the minimal inhibitory concentration (MIC) with S. aureus MP-12 was > 32 µg/mL; with A. baumannii MP-15, > 32 µg/mL; against P. aeruginosa MP-3, > 32 µg/mL; with K. pneumoniae MP-546, 4 to 32 µg/mL (≈ 6.11 to 48.9 µM); in the experiment with E. coli MP-4, < 4 µg/mL.

Turning to `CO[C@]1(C)C[C@@H](C)CN(C)[C@@H]([C@@H]2CCCNC2)COC(=O)C(C)(C)C(=O)[C@H](C)[C@H]1O[C@@H]1O[C@H](C)C[C@H](N(C)C)[C@H]1O` [Compound 53], the MIC with S. aureus MP-12 was 4 to 32 µg/mL (≈ 6.85 to 54.8 µM); in the experiment on A. baumannii MP-15, > 32 µg/mL; with P. aeruginosa MP-3, > 32 µg/mL; against K. pneumoniae MP-546 it was < 4 µg/mL; with E. coli MP-4, < 4 µg/mL.

On to `CO[C@]1(C)C[C@@H](C)CN(C)[C@@H]([C@H]2CCCN(C(C)C)C2)COC(=O)C(C)(C)C(=O)[C@H](C)[C@H]1O[C@@H]1O[C@H](C)C[C@H](N(C)C)[C@H]1O` [Compound 56, (3S,6R,8R,9R,10R)-9-(((2S,3R,4S,6R)-4-(dimethylamino)-3-hydroxy-6-methyltetrahydro-2H-pyran-2-yl)oxy)-3-((S)-1-isopropylpiperidin-3-yl)-8-methoxy-4,6,8,10,12,12-hexamethyl-1-oxa-4-azacyclotridecane-11,13-dione], for which the minimum inhibitory concentration (MIC) in the experiment with S. aureus MP-12, with A. baumannii MP-15, in the experiment with P. aeruginosa MP-3, against K. pneumoniae MP-546 and in the experiment with E. coli MP-4 was > 32 µg/mL each time.

For `CO[C@]1(C)C[C@@H](C)CN(C)[C@@H]([C@H]2CCN(C(C)C)C2)COC(=O)C(C)(C)C(=O)[C@H](C)[C@H]1O[C@@H]1O[C@H](C)C[C@H](N(C)C)[C@H]1O` [Compound 57, (3S,6R,8R,9R,10R)-9-(((2S,3R,4S,6R)-4-(Dimethylamino)-3-hydroxy-6-methyltetrahydro-2H-pyran-2-yl)oxy)-3-((S)-1-isopropylpyrrolidin-3-yl)-8-methoxy-4,6,8,10,12,12-hexamethyl-1-oxa-4-azacyclotridecane-11,13-dione], the MIC with S. aureus MP-12 is 4 to 32 µg/mL (≈ 6.54 to 52.3 µM); in the experiment on A. baumannii MP-15, > 32 µg/mL; in the experiment on P. aeruginosa MP-3, > 32 µg/mL; against K. pneumoniae MP-546, 4 to 32 µg/mL (≈ 6.54 to 52.3 µM); in the experiment on E. coli MP-4, < 4 µg/mL.

With `CO[C@]1(C)C[C@@H](C)CN(C)[C@H](C2CCN(CC(F)F)CC2)COC(=O)C(C)(C)C(=O)[C@H](C)[C@H]1O[C@@H]1O[C@H](C)C[C@H](N(C)C)[C@H]1O` [Compound 62, (3R,6R,8R,9R,10R)-3-(1-(2,2-difluoroethyl)piperidin-4-yl)-9-(((2S,3R,4S,6R)-4-(dimethylamino)-3-hydroxy-6-methyltetrahydro-2H-pyran-2-yl)oxy)-8-methoxy-4,6,8,10,12,12-hexamethyl-1-oxa-4-azacyclotridecane-11,13-dione], the MIC with S. aureus MP-12 was 4 to 32 µg/mL (≈ 6.17 to 49.4 µM); in the experiment with A. baumannii MP-15 it was > 32 µg/mL; with P. aeruginosa MP-3, > 32 µg/mL; in the experiment on K. pneumoniae MP-546, 4 to 32 µg/mL (≈ 6.17 to 49.4 µM); with E. coli MP-4, < 4 µg/mL.

`CCCN1CCC([C@H]2COC(=O)C(C)(C)C(=O)[C@H](C)[C@@H](O[C@@H]3O[C@H](C)C[C@H](N(C)C)[C@H]3O)[C@](C)(OC)C[C@@H](C)CN2C)CC1` [Compound 63, (3S,6R,8R,9R,10R)-9-(((2S,3R,4S,6R)-4-(dimethylamino)-3-hydroxy-6-methyltetrahydro-2H-pyran-2-yl)oxy)-8-methoxy-4,6,8,10,12,12-hexamethyl-3-(1-propylpiperidin-4-yl)-1-oxa-4-azacyclotridecane-11,13-dione]: the MIC in the experiment on S. aureus MP-12 was 4 to 32 µg/mL (≈ 6.39 to 51.1 µM); with A. baumannii MP-15 it was > 32 µg/mL; in the experiment with P. aeruginosa MP-3, > 32 µg/mL; in the experiment on K. pneumoniae MP-546 it was < 4 µg/mL; in the experiment with E. coli MP-4, < 4 µg/mL.
